Measurements: patent US7795253B2, “Condensed imidazole derivatives as aromatase inhibitors” (Novartis AG, priority 2006, dated 2010)

Target: T1, recombinant human Cyp19 enzyme (Homo sapiens, UniProt P11511)
T1 construct: purchased Becton Dickinson Biosciences, San Jose, Calif., USA
T1 sequence (P11511 1-503): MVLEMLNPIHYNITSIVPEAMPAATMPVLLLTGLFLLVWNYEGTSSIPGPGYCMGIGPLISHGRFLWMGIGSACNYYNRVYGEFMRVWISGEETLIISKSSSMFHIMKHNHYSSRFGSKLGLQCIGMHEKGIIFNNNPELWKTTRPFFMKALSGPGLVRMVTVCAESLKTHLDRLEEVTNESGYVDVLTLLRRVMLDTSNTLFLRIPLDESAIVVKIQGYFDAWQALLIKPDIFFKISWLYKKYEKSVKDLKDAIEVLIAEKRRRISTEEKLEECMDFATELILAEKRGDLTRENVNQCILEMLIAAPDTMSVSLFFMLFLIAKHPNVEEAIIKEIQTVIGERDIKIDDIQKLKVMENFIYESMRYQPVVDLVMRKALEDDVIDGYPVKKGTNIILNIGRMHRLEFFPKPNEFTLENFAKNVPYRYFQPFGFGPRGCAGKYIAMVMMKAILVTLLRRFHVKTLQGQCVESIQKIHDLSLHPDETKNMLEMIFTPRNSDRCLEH
Assay: Cyp19/methoxy-4-trifluoromethyl-coumarin (MFC) high throughput inhibition kit
Type: biochemical
Settings: Cyp19 supersomes, MFC substrate
Description: A compound of formula (I) is to be understood as a compound having a specific configuration around the designated asymmetric carbon atom labelled “*”. If a synthesis method is used which leads to racemic compounds, the racemate resolution is carried out in accordance with conventional methods, such as via a chiral HPLC column. […] The aforementioned activity can, readily and as described below, be determined by using a commercial Cyp19 enzyme inhibition kit, preferably the Cyp19/methoxy-4-trifluoromethyl-coumarin (MFC) high throughput inhibition kit (Becton Dickinson Biosciences, San Jose, Calif., USA) as described hereafter. In the above-mentioned inhibition kit, compounds of the formula (I) show an inhibiting activity which is at least 10 times higher, but preferably 20 times higher, or more preferably 40 times higher, than the substances of the formula (I) with the opposite configuration around the asymmetric carbon atom labelled “*”. A higher inhibiting activity corresponds to a lower IC50 value.
These effects are demonstrable in in vitro assay tests using cell-free and cellular systems. […] The Cyp19/Methoxy-4-trifluoromethyl-coumarin (MFC) high throughput inhibition kit (Becton Dickinson Biosciences, San Jose, Calif., USA), for example, is designed to screen for potential inhibitors of Cyp19 catalytic activity in a 96-well format. […]

`N#Cc1ccc(C2OCCn3cncc32)cc1` (stereo not shown) [antipode of 1] showed an IC50 of 2770 nM.
